Results on 16 compounds are retold here after patent US20260297081A1, “COMPOUNDS AND METHODS OF TREATING CANCERS” (Cullgen Inc., priority 2023, published 2026).

One test deals with Calu-1 cells. The experiment in a line: Anti-proliferation (viability) of NSCLC Calu-1 cells, 3 days (Table 7, FIG. 2B). It is filed as cell-based. Conditions: Homo sapiens, 72 h; Calu-1 cells, 3 days, 10-point serial dilution; read-out: GI IC50 in Calu-1. Summed up: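 Viability is read after treatment with compounds titrated over ten serial dilution points, with exposure lasting three days for the NSCLC line and six days for the breast cancer line.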

Another test concerns MCF7 cells. The experiment in a line: Anti-proliferation (viability) of MCF7 cells (Table 7, FIG. 2B). In kind it is cell-based. The conditions noted are these: Homo sapiens, MCF7, MCF7 cells, 3-6 days, 10-point serial dilution; read-out: GI IC50 in MCF-7.

Molecules are shown by their SMILES.

What is called IC50 is the midpoint of a concentration-inhibition curve. On to `CC(=O)c1c(C)c2cnc(Nc3ccc(N4CCN(C5CCN(C(=O)N6CC7(CCC(Nc8nc(NC(C)C)ccc8C(=O)Nc8ccc(N(C)C)nn8)CC7)C6)C5)CC4)cn3)nc2n(C2CCCC2)c1=O` (centres unmarked) [CPD-555, 2-((2-(3-(4-(6-((6-acetyl-8-cyclopentyl-5-methyl-7-oxo-7,8-dihydropyrido[2,3-d]pyrimidin-2-yl)amino)pyridin-3-yl)piperazin-1-yl)pyrrolidine-1-carbonyl)-2-azaspiro[3.5]nonan-7-yl)amino)-N-(6-(dimethylamino)pyridazin-3-yl)-6-(isopropylamino)nicotinamide], for which the results for the IC50 with Calu-1 cells and with MCF7 cells were at most 10 nM and 50 to 100 nM, respectively.

Turning to `[2H]C([2H])([2H])Nc1ccc(C(=O)Nc2ccc(N(C)C)nn2)c(NC2CC3(C2)CN(C(=O)CN(C)C2CCN(c4ccc(Nc5ncc6c(C)c(C(C)=O)c(=O)n(C7CCCC7)c6n5)nc4)CC2)C3)n1` [CPD-464, 2-((2-(N-(1-(6-((6-acetyl-8-cyclopentyl-5-methyl-7-oxo-7,8-dihydropyrido[2,3-d]pyrimidin-2-yl)amino)pyridin-3-yl)piperidin-4-yl)-N-methylglycyl)-2-azaspiro[3.3]heptan-6-yl)amino)-N-(6-(dimethylamino)pyridazin-3-yl)-6-((methyl-d3)amino)nicotinamide], the figures for the IC50 with Calu-1 cells and in the test with MCF7 cells were at most 10 nM and below 50 nM, respectively.

As to `CC(=O)c1c(C)c2cnc(Nc3ccc(N4CCC(N5CCC[C@H]5C(=O)NCC5CC(Nc6nc(NC(C)C)ccc6C(=O)Nc6ccc(N(C)C)nn6)C5)CC4)cn3)nc2n(C2CCCC2)c1=O` (stereo partly drawn) [CPD-542, (S)-2-((3-((1-(1-(6-((6-acetyl-8-cyclopentyl-5-methyl-7-oxo-7,8-dihydropyrido[2,3-d]pyrimidin-2-yl)amino)pyridin-3-yl)piperidin-4-yl)pyrrolidine-2-carboxamido)methyl)cyclobutyl)amino)-N-(6-(dimethylamino)pyridazin-3-yl)-6-(isopropylamino)nicotinamide], the IC50 is at most 10 nM with Calu-1 cells and above 100 nM in the test on MCF7 cells.

As for `[2H]C([2H])([2H])Nc1ccc(C(=O)Nc2ccc(N(C)C)nn2)c(NC2CC(C(=O)N3CCC(N4CCN(c5ccc(Nc6ncc7c(C)c(C(C)=O)c(=O)n(C8CCCC8)c7n6)nc5)CC4)C3)C2)n1` (centres unmarked) [CPD-471, 2-((3-(3-(4-(6-((6-acetyl-8-cyclopentyl-5-methyl-7-oxo-7,8-dihydropyrido[2,3-d]pyrimidin-2-yl)amino)pyridin-3-yl)piperazin-1-yl)pyrrolidine-1-carbonyl)cyclobutyl)amino)-N-(6-(dimethylamino)pyridazin-3-yl)-6-((methyl-d3)amino)nicotinamide], the concentration for half-maximal inhibition (IC50) in the test on Calu-1 cells was at most 10 nM; in the test on MCF7 cells, below 50 nM.

As to `CC(=O)c1c(C)c2cnc(Nc3ccc(N4CCN(CC(=O)NCC5CC(Nc6nc(NC(C)C)ccc6C(=O)Nc6cn(C)c(C7CC7)n6)C5)CC4)cn3)nc2n(C2CCCC2)c1=O` (centres unmarked) [CPD-277, 2-((3-((2-(4-(6-((6-acetyl-8-cyclopentyl-5-methyl-7-oxo-7,8-dihydropyrido[2,3-d]pyrimidin-2-yl)amino)pyridin-3-yl)piperazin-1-yl)acetamido)methyl)cyclobutyl)amino)-N-(2-cyclopropyl-1-methyl-1H-imidazol-4-yl)-6-(isopropylamino)nicotinamide], the IC50 in the test with Calu-1 cells is at most 10 nM; in the test on MCF7 cells, above 100 nM.

On to `CC(=O)c1c(C)c2cnc(Nc3ccc(CN4CCN(CC(=O)N5CCC6(CCC(Nc7nc(NC(C)C)ccc7C(=O)Nc7cn(C)c(C8CC8)n7)C6)C5)CC4)cn3)nc2n(C2CCCC2)c1=O` (centres unmarked) [CPD-548, 2-((2-(2-(4-((6-((6-acetyl-8-cyclopentyl-5-methyl-7-oxo-7,8-dihydropyrido[2,3-d]pyrimidin-2-yl)amino)pyridin-3-yl)methyl)piperazin-1-yl)acetyl)-2-azaspiro[4.4]nonan-7-yl)amino)-N-(2-cyclopropyl-1-methyl-1H-imidazol-4-yl)-6-(isopropylamino)nicotinamide], for which the IC50 in the test on Calu-1 cells was at most 10 nM; in the test on MCF7 cells, below 50 nM.

For `COc1cccc(NC(=O)c2ccc(NC(C)C)nc2NC2CCN(C(=O)CN3CCN(Cc4ccc(Nc5ncc6c(C)c(C(C)=O)c(=O)n(C7CCCC7)c6n5)nc4)CC3)CC2)n1` [CPD-533], the 50% inhibitory concentration (IC50) with Calu-1 cells was at most 10 nM; in the test with MCF7 cells, 50 to 100 nM.

With `CC(=O)c1c(C)c2cnc(Nc3ccc(N4CCC(N5CCC(C(=O)NC6CCC(Nc7nc(NC(C)C)ccc7C(=O)Nc7ccc(N(C)C)nn7)CC6)C5)CC4)cn3)nc2n(C2CCCC2)c1=O` (centres unmarked) [CPD-462, 2-((4-(1-(1-(6-((6-acetyl-8-cyclopentyl-5-menthyl-7-oxo-7,8-dihydropyrido[2,3-d]pyrimidin-2-yl)amino)pyridin-3-yl)piperidin-4-yl)pyrrolidine-3-carboxamido)cyclohexyl)amino)-N-(6-(dimethylamino)pyridazin-3-yl)-6-(isopropylamino)nicotinamide], the IC50 with Calu-1 cells is 10 to 50 nM; with MCF7 cells, above 100 nM.

For `[2H]C([2H])([2H])Nc1ccc(C(=O)Nc2ccc(N(C)C)nn2)c(NC2CCN(C(=O)CN(C)C3CCN(c4ccc(Nc5ncc6c(C)c(C(C)=O)c(=O)n(C7CCCC7)c6n5)nc4)CC3)CC2)n1` [CPD-463, 2-((1-(N-(1-(6-((6-acetyl-8-cyclopentyl-5-methyl-7-oxo-7,8-dihydropyrido[2,3-d]pyrimidin-2-yl)amino)pyridin-3-yl)piperidin-4-yl)-N-methylglycyl)piperidin-4-yl)amino)-N-(6-(dimethylamino)pyridazin-3-yl)-6-((methyl-d3)amino)nicotinamide], the IC50 in the test on Calu-1 cells was at most 10 nM; with MCF7 cells, below 50 nM.

Turning to `CC(=O)c1c(C)c2cnc(Nc3ccc(N4CCN(CC(=O)NC5CCC(Nc6nc(NC(C)C)ccc6C(=O)Nc6cn(C)c(C7CC7)n6)C5)CC4)cn3)nc2n(C2CCCC2)c1=O` (centres unmarked) [CPD-284, 2-((3-(2-(4-(6-((6-acetyl-8-cyclopentyl-5-methyl-7-oxo-7,8-dihydropyrido[2,3-d]pyrimidin-2-yl)amino)pyridin-3-yl)piperazin-1-yl)acetamido)cyclopentyl)amino)-N-(2-cyclopropyl-1-methyl-1H-imidazol-4-yl)-6-(isopropylamino)nicotinamide], the results for the IC50 with Calu-1 cells and in the test on MCF7 cells were at most 10 nM and above 100 nM, respectively.

`CC(=O)c1c(C)c2cnc(Nc3ccc(N4CCC(N5CCC(C(=O)NCC6CC(Nc7nc(NC(C)C)ccc7C(=O)Nc7ccc(N(C)C)nn7)C6)C5)CC4)cn3)nc2n(C2CCCC2)c1=O` (centres unmarked) [CPD-461, 2-((3-((1-(1-(6-((6-acetyl-8-cyclopentyl-5-methyl-7-oxo-7,8-dihydropyrido[2,3-d]pyrimidin-2-yl)amino)pyridin-3-yl)piperidin-4-yl)pyrrolidine-3-carboxamido)methyl)cyclobutyl)amino)-N-(6-(dimethylamino)pyridazin-3-yl)-6-(isopropylamino)nicotinamide]: the IC50 with Calu-1 cells was at most 10 nM; in the test on MCF7 cells it was 50 to 100 nM.

For the compound `CC(C)Nc1ccc(C(=O)Nc2ccc(N(C)C)nn2)c(N[C@H]2CC[C@H](C(=O)N3CCC(N4CCN(c5ccc(Nc6ncc7cc(C(F)F)c(=O)n(C8CCCC8)c7n6)nc5)CC4)C3)CC2)n1` (stereo partly drawn) [CPD-559, 2-((trans-4-(3-(4-(6-((8-cyclopentyl-6-(difluoromethyl)-7-oxo-7,8-dihydropyrido[2,3-d]pyrimidin-2-yl)amino)pyridin-3-yl)piperazin-1-yl)pyrrolidine-1-carbonyl)cyclohexyl)amino)-N-(6-(dimethylamino)pyridazin-3-yl)-6-(isopropylamino)nicotinamide], the IC50 with Calu-1 cells was 10 to 50 nM; with MCF7 cells, above 100 nM.

Take `CC(=O)c1c(C)c2cnc(Nc3ccc(N4CCC(N5CCC[C@H]5C(=O)N5CC6(CC(Nc7nc(NC(C)C)ccc7C(=O)Nc7ccc(N(C)C)nn7)C6)C5)CC4)cn3)nc2n(C2CCCC2)c1=O` [CPD-544, 2-((2-((1-(6-((6-acetyl-8-cyclopentyl-5-methyl-7-oxo-7,8-dihydropyrido[2,3-d]pyrimidin-2-yl)amino)pyridin-3-yl)piperidin-4-yl)-L-prolyl)-2-azaspiro[3.3]heptan-6-yl)amino)-N-(6-(dimethylamino)pyridazin-3-yl)-6-(isopropylamino)nicotinamide]: the concentration for half-maximal inhibition (IC50) in the test with Calu-1 cells is at most 10 nM; in the test on MCF7 cells, below 50 nM.

Take `[2H]C([2H])([2H])Nc1ccc(C(=O)Nc2cn3c(n2)CCC3)c(NC2CC3(C2)CN(C(=O)CC(N2CCN(c4ccc(Nc5ncc6c(C)c(C(C)=O)c(=O)n(C7CCCC7)c6n5)nc4)CC2)C(F)(F)F)C3)n1` (centres unmarked) [CPD-567, 2-((2-(3-(4-(6-((6-acetyl-8-cyclopentyl-5-methyl-7-oxo-7,8-dihydropyrido[2,3-d]pyrimidin-2-yl)amino)pyridin-3-yl)piperazin-1-yl)-4,4,4-trifluorobutanoyl)-2-azaspiro[3.3]heptan-6-yl)amino)-N-(6,7-dihydro-5H-pyrrolo[1,2-a]imidazol-2-yl)-6-((methyl-d3)amino)nicotinamide]: the figures for the IC50 with Calu-1 cells and in the test on MCF7 cells were at most 10 nM and 50 to 100 nM, respectively.

For `CC(=O)c1c(C)c2cnc(Nc3ccc(N4CCN(C5CCN(C(=O)[C@H]6CC[C@H](Nc7nc(NC(C)C)ccc7C(=O)Nc7cn8c(n7)CCC8)CC6)C5)CC4)cn3)nc2n(C2CCCC2)c1=O` (stereo partly drawn) [CPD-568, 2-((trans-4-(3-(4-(6-((6-acetyl-8-cyclopentyl-5-methyl-7-oxo-7,8-dihydropyrido[2,3-d]pyrimidin-2-yl)amino)pyridin-3-yl)piperazin-1-yl)pyrrolidine-1-carbonyl)cyclohexyl)amino)-N-(6,7-dihydro-5H-pyrrolo[1,2-a]imidazol-2-yl)-6-(isopropylamino)nicotinamide], the IC50 was at most 10 nM in the test with Calu-1 cells and above 100 nM with MCF7 cells.

For the compound `CC(=O)c1c(C)c2cnc(Nc3ccc(N4CCN(CC(=O)NC5CC6(C5)CC(Nc5nc(NC(C)C)ccc5C(=O)Nc5cn7c(n5)CCC7)C6)CC4)cn3)nc2n(C2CCCC2)c1=O` (centres unmarked) [CPD-566, 2-((6-(2-(4-(6-((6-acetyl-8-cyclopentyl-5-methyl-7-oxo-7,8-dihydropyrido[2,3-d]pyrimidin-2-yl)amino)pyridin-3-yl)piperazin-1-yl)acetamido)spiro[3.3]heptan-2-yl)amino)-N-(6,7-dihydro-5H-pyrrolo[1,2-a]imidazol-2-yl)-6-(isopropylamino)nicotinamide], the IC50 was at most 10 nM in the test with Calu-1 cells and below 50 nM with MCF7 cells.
